Experimental findings from ChEMBL document CHEMBL1148870, “Novel inhibitors of VEGF receptors-1 and -2 based on azole-5-carboxamide templates” (Bioorg Med Chem Lett, 2007) are described below.

Calls of active or inactive are those of the source. The rule behind the calls is not given here.

Broadly, the Ki is a dissociation constant, usually derived from enzyme kinetics or from competition with a known ligand. As usually defined, the IC50 is the midpoint of a concentration-inhibition curve. Usually GI50 stands for the concentration at which growth is held to half of that of the control.

Series [1] is filed under the species Homo sapiens. Kind of series: Inhibition of InR at 10 uM. Also noted: scale not given: the % may be the effect or the level left.
The nature of series [2]: Passive diffusion assessed as intrinsic permeability across Caco-2 cell membrane. It counts as ADME, cell-based. Particulars: human, read-out: permeability (converted).
In the next series the test system is Caco-2. Kind of series: Passive diffusion assessed as absorption potential across Caco-2 cell membrane. It counts as ADME, cell-based. Conditions: human.
For series [3], the target named is Glycogen synthase kinase-3 beta (Homo sapiens) (UniProt P49841). Kind of series: Inhibition of GSK3-beta at 10 uM. Also noted: scale not given: the % may be the effect or the level left.
Series [4] concerns the target T1, Vascular endothelial growth factor receptor 2 (Homo sapiens, UniProt P35968). Briefly: Displacement of [32P]ATP from human VEGFR2 after 45 mins.
The target of series [5] is Vascular endothelial growth factor receptor 3 (Homo sapiens) (UniProt P35916). Kind of series: Inhibition of Flt4 at 10 uM. Details: scale not given: the % may be the effect or the level left.
Series [6] concerns the target Cyclin-dependent kinase 2 (Homo sapiens) (UniProt P24941). Kind of series: Inhibition of Cdk2 at 10 uM. Details: scale not given: the % may be the effect or the level left.
The species entered for series [7] is Homo sapiens. Kind of series: Inhibition of bcr-Abl at 10 uM. Details: scale not given: the % may be the effect or the level left.
For series [8], the species on record is Homo sapiens. Kind of series: Inhibition of Cdk1 at 10 uM. Also noted: scale not given: the % may be the effect or the level left.
Series [9] concerns the target RAC-alpha serine/threonine-protein kinase (Homo sapiens) (UniProt P31749). Briefly: Inhibition of PKB/Akt at 10 uM. Also noted: scale not given: the % may be the effect or the level left.
The species named for series [10] is Homo sapiens. Kind of series: Inhibition of PKA at 10 uM. Also noted: scale not given: the % may be the effect or the level left.
The target of series [11] is T1, Vascular endothelial growth factor receptor 2. Kind of series: Inhibition of VEGFR2 assessed as inhibition of phosphorylation in presence of 2 uM ATP by HTRF assay. It counts as functional. For orientation: In TR-FRET formats the signal depends on donor and acceptor labels being close together.
The target of series [12] is Hepatocyte growth factor receptor (Homo sapiens) (UniProt P08581). Kind of series: Inhibition of cMet at 10 uM. Also noted: scale not given: the % may be the effect or the level left.
The target in series [13] is T1, Vascular endothelial growth factor receptor 2. Briefly: Inhibition of VEGFR2 assessed as inhibition of phosphorylation in human 293 cells by cell-based ELISA. It counts as functional, HEK293. A general note: An ELISA detects its analyte on a solid surface through an enzyme-linked reagent.
Series [14] concerns the target Vascular endothelial growth factor receptor 1 (Homo sapiens, UniProt P17948). Kind of series: Inhibition of VEGFR1 assessed as inhibition of phosphorylation in presence of 2 uM ATP by HTRF assay. It counts as functional.
For series [15], the target named is Insulin-like growth factor 1 receptor (Homo sapiens) (UniProt P08069). Kind of series: Inhibition of IGF1R at 10 uM. Details: scale not given: the % may be the effect or the level left.
In series [16] the target is Epidermal growth factor receptor (Homo sapiens) (UniProt P00533). Briefly: Inhibition of ErbB1 at 10 uM. Also noted: scale not given: the % may be the effect or the level left.
Series [17] concerns the target Receptor-type tyrosine-protein kinase FLT3 (Homo sapiens) (UniProt P36888). Kind of series: Inhibition of Flt3 at 10 uM. Details: scale not given: the % may be the effect or the level left.
The target in series [18] is Fibroblast growth factor receptor 1 (Homo sapiens) (UniProt P11362). Kind of series: Inhibition of FGFR1 at 10 uM. Details: scale not given: the % may be the effect or the level left.
Series [19] addresses Receptor tyrosine-protein kinase erbB-2 (Homo sapiens) (UniProt P04626). Kind of series: Inhibition of ErbB2/Her2 at 10 uM. Details: scale not given: the % may be the effect or the level left.
The target in series [20] is RAF proto-oncogene serine/threonine-protein kinase (Homo sapiens) (UniProt P04049). Kind of series: Inhibition of Raf1 at 10 uM. Also noted: scale not given: the % may be the effect or the level left.
The next series has as its system DU-145. Briefly: Cytotoxicity against human DU145 cells after 24 hrs. It counts as functional. Conditions: DU-145, 24 h.
The subject of another series is A-431. Kind of series: Cytotoxicity against human A431 cells after 24 hrs. It counts as functional. Conditions: A-431, 24 h.
For the next series, the system named is DLD-1. Kind of series: Cytotoxicity against human DLD1 cells after 24 hrs. It counts as functional. Conditions: DLD-1, 24 h.
In another series the test system is HEK293. Kind of series: Cytotoxicity against HEK293 cells after 24 hrs. Particulars: Homo sapiens. It counts as functional, cell-based.

Chain of RAF proto-oncogene serine/threonine-protein kinase (Homo sapiens) (P04049 whole entry): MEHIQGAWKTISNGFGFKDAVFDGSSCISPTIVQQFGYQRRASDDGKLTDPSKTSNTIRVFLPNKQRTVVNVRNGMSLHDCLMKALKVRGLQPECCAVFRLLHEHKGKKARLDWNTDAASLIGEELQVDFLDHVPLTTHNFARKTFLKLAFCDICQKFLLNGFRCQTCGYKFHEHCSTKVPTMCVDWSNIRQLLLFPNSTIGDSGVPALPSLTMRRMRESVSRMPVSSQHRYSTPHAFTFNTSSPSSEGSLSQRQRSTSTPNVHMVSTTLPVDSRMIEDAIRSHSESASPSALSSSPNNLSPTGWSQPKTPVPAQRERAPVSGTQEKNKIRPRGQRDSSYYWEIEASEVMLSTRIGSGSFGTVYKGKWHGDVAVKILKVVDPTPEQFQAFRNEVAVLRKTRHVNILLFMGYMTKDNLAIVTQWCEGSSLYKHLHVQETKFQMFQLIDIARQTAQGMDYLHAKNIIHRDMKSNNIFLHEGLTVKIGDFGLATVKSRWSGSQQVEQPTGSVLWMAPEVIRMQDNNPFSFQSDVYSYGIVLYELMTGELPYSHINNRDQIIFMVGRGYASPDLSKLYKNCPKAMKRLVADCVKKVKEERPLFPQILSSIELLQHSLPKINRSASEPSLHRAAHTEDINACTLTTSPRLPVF
Chain of Glycogen synthase kinase-3 beta (Homo sapiens) (P49841 whole entry, looked up): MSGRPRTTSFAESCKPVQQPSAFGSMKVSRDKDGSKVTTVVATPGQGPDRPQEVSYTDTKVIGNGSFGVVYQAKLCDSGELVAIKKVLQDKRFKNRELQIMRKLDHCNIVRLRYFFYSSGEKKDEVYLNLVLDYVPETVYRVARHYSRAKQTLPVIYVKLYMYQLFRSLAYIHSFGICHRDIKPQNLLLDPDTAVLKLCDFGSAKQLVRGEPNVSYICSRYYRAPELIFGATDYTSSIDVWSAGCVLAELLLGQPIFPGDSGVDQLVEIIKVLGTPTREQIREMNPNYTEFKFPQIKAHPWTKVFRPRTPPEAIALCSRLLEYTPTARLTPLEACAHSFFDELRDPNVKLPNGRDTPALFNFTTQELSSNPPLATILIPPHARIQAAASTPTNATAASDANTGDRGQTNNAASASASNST
Chain of RAC-alpha serine/threonine-protein kinase (Homo sapiens) (P31749 whole entry): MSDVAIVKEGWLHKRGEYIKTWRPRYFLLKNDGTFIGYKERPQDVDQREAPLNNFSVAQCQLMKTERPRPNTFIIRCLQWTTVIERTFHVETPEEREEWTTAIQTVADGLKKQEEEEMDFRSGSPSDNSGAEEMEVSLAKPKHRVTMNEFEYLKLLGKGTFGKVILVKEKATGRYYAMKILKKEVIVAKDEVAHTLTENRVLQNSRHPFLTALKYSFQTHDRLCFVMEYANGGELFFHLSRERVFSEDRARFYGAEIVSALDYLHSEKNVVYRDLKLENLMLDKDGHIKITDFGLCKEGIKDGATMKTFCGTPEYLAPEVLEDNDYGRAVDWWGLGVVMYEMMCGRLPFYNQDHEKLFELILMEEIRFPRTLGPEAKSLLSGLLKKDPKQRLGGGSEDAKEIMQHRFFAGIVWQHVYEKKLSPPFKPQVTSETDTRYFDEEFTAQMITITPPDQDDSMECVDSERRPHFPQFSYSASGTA
Chain of Hepatocyte growth factor receptor (Homo sapiens) (P08581 whole entry): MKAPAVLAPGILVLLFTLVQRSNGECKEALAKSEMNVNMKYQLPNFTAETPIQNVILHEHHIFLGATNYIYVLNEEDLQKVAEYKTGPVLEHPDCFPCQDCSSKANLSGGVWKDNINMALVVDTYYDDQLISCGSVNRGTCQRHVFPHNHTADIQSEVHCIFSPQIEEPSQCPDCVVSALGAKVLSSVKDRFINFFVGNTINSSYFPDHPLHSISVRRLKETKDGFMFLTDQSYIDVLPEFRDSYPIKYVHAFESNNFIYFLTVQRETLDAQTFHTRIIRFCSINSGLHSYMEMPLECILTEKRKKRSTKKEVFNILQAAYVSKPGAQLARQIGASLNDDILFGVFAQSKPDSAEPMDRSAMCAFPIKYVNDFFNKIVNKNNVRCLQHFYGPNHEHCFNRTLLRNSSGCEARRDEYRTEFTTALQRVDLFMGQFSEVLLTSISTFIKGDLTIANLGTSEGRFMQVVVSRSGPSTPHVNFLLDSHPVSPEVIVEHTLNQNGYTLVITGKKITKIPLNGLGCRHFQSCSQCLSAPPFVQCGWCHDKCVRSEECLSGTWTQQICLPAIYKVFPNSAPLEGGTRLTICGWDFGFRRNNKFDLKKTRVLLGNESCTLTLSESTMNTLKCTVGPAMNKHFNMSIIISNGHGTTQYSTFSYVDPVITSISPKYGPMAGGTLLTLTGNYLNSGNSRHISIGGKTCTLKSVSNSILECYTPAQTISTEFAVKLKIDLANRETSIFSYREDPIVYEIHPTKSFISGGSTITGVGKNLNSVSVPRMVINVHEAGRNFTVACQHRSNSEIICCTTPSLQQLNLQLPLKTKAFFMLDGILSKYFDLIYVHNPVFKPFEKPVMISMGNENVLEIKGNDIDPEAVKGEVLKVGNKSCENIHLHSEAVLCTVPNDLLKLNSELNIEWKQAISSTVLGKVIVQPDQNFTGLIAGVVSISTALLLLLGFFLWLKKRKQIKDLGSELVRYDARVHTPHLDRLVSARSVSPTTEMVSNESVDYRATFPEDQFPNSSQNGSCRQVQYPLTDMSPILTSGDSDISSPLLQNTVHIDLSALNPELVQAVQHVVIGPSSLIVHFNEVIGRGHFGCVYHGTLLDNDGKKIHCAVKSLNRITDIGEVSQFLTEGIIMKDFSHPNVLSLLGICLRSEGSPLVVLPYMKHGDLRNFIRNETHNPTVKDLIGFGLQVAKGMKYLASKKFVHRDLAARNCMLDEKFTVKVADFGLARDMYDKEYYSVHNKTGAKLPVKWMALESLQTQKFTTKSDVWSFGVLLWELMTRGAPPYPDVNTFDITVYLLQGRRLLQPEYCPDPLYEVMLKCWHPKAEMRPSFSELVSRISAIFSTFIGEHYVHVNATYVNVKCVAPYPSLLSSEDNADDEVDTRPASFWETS
Chain of Vascular endothelial growth factor receptor 1 (P17948 whole entry): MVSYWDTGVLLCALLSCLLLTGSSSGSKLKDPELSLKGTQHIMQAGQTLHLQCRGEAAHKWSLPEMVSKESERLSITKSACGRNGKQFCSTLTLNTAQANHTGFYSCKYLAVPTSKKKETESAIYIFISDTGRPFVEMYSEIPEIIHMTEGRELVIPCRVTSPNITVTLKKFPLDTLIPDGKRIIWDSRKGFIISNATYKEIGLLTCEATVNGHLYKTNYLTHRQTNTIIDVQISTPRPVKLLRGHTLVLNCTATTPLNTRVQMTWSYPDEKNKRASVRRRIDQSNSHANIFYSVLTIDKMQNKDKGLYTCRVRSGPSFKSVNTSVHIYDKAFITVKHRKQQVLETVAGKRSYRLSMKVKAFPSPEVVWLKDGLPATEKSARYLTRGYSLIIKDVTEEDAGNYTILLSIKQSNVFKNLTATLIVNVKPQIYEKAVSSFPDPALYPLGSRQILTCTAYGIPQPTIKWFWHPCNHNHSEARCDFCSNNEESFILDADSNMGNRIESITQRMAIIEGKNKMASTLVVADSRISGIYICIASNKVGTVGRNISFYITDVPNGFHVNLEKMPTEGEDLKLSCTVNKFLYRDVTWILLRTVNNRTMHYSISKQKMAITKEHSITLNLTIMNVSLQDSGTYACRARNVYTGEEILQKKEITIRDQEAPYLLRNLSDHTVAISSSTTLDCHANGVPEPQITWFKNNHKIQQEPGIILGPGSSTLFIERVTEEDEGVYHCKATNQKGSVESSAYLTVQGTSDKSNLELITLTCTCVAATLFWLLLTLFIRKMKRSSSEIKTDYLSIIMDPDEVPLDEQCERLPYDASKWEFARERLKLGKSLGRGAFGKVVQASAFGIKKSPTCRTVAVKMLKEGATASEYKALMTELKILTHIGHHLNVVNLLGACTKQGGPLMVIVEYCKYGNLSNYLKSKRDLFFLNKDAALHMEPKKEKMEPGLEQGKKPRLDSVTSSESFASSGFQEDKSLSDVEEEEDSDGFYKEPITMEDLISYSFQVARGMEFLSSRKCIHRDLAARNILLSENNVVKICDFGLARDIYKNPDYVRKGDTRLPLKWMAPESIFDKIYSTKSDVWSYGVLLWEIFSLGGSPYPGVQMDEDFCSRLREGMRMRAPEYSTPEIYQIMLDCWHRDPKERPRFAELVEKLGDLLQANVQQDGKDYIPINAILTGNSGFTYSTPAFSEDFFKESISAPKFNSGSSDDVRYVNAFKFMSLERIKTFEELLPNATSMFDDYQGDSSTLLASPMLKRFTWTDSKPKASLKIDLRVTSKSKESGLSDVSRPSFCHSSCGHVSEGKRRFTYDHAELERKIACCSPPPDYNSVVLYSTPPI
Chain of Fibroblast growth factor receptor 1 (Homo sapiens) (P11362 22-822 limits assumed): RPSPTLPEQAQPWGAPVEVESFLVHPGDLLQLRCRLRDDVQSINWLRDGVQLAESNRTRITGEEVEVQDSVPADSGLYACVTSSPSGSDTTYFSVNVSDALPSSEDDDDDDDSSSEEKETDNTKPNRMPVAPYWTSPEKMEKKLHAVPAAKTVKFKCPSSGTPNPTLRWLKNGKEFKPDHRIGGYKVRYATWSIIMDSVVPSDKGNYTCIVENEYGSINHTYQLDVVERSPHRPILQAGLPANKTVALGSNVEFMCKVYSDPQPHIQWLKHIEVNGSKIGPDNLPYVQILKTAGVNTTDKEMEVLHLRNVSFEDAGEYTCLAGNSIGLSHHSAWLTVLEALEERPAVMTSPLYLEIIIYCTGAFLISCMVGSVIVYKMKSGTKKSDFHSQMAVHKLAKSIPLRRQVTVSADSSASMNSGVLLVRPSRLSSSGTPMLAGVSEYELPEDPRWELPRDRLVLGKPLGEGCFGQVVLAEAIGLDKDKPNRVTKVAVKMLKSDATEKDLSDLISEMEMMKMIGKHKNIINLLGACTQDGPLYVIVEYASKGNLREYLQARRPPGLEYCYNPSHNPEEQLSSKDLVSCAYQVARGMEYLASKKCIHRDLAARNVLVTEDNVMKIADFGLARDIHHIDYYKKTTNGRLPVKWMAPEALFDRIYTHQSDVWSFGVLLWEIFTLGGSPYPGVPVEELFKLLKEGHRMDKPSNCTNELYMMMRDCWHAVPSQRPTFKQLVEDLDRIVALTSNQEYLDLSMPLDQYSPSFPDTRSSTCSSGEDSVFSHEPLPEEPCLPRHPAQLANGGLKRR

Regarding `CC(C)(C)c1ccc(NC(=O)c2ccnn2CCc2ccncc2)cc1`, the Activity in the series listed under Homo sapiens [1] was greater than 30%; with Caco-2 it was “Active”; in [3], greater than 30%; in series [5], greater than 30%; in [6] it was greater than 30%; in the series listed under Homo sapiens [7], greater than 30%. Besides, the Activity is greater than 30% in the series filed under Homo sapiens [8]; greater than 30% in [9]; greater than 30% in the series listed under Homo sapiens [10]; greater than 30% in series [12]; greater than 30% in series [15]; less than 30% in series [16]. The Activity in series [17], in series [18], in series [19] and in series [20] was greater than 30% throughout. Besides, the Papp in series [2] is 7.43 ×10⁻⁶ cm/s. The figures for the Ki in [4] and in series [11] were 0.14 µM and 0.13 µM, respectively. The IC50 in [11] came out at 0.042 µM; in series [13], 0.033 µM; in [14], 0.59 µM.
In the case of `O=C(Nc1ccc(C(F)(F)F)c(Cl)c1)c1ccnn1CCc1ccncc1`, the Activity was greater than 30% in the series listed under Homo sapiens [1]; “Active” with Caco-2; greater than 30% in series [3]; greater than 30% in [5]; greater than 30% in [6]; greater than 30% in the series filed under Homo sapiens [7]. Also, the Activity in the series listed under Homo sapiens [8] is greater than 30%; in series [9] it was greater than 30%; in the series listed under Homo sapiens [10], greater than 30%; in series [12], greater than 30%; in series [15] it was greater than 30%; in series [16] it was less than 30%. In addition, the Activity in series [17], in [18], in series [19] and in series [20] was greater than 30% each time. The Papp in [2] was 4.6 ×10⁻⁶ cm/s. Further, the figures for the inhibition constant Ki in series [4] and in series [11] were 0.16 µM and 0.17 µM, respectively. Further, the figures for the IC50 in series [11], in series [13] and in series [14] were 0.18 µM, 0.095 µM and 0.98 µM, respectively.
For the compound `COc1ccc(NC(=O)c2ccnn2CCc2ccncc2)cc1OC`, the Activity (in the series filed under Homo sapiens [1]; in [3]; in series [5]; in [6]; in the series listed under Homo sapiens [7]; in the series filed under Homo sapiens [8]) was greater than 30% each time. The Activity is greater than 30% in series [9]; greater than 30% in the series listed under Homo sapiens [10]; greater than 30% in series [12]; greater than 30% in series [15]; less than 30% in [16]; greater than 30% in series [17]. The Activity in [18], in series [19] and in [20] was greater than 30% each time. Besides, the GI50 in the series with DU-145 came to 0.22 µM; with A-431, 0.05 µM; in the series on DLD-1 it was 0.125 µM. Besides, the IC50 in [11] came to 0.44 µM; in [13], 0.09 µM; in series [14], 1.23 µM. In the series on HEK293, the result was Active.
Regarding `O=C(Nc1ccc(Cl)cc1)c1ccnn1CCc1ccncc1`, the Activity in the series filed under Homo sapiens [1] is greater than 30%; with Caco-2, “Active”; in series [3] it was greater than 30%; in series [5] it was greater than 30%; in [6], greater than 30%; in the series listed under Homo sapiens [7], greater than 30%. In addition, the Activity in the series listed under Homo sapiens [8] was greater than 30%; in series [9] it was greater than 30%; in the series listed under Homo sapiens [10], greater than 30%; in series [12], greater than 30%; in [15] it was greater than 30%; in series [16] it was less than 30%. The Activity in series [17], in [18], in series [19] and in series [20] was greater than 30% each time. In series [2], the Papp is 6.95 ×10⁻⁶ cm/s. In addition, the inhibition constant (Ki) in series [4] worked out at 0.09 µM; in [11] it was 0.11 µM. Besides, the IC50 stood at 0.077 µM in [11], 0.09 µM in series [13] and 0.097 µM in series [14].
Consider `O=C(Nc1cccc(OC(F)(F)Cl)c1)c1ccnn1CCc1ccncc1`, for which the Activity in the series listed under Homo sapiens [1] is greater than 30%; with Caco-2, “Active”; in series [3], greater than 30%; in series [5], greater than 30%; in series [6], greater than 30%; in the series filed under Homo sapiens [7], greater than 30%. For the same compound, the Activity was greater than 30% in the series filed under Homo sapiens [8]; greater than 30% in series [9]; greater than 30% in the series filed under Homo sapiens [10]; greater than 30% in series [12]; greater than 30% in series [15]; less than 30% in series [16]. The Activity in series [17], in [18], in series [19] and in [20] was greater than 30% in each case. In addition, the Papp in series [2] was 4.73 ×10⁻⁶ cm/s. Further, the Ki turned out to be 0.09 µM in series [4] and 0.07 µM in series [11]. The IC50 in series [13] came to 0.021 µM; in [14], 0.32 µM.
